Structures are written as SMILES. Non-standard residues stand in square brackets, D forms with d. Residues, ends and D or L forms follow the SMILES beside them.

The test system of the experiment is human subjects. Nature of the experiment: Testing of peptide 4 in human subjects for treatment of different diseases and conditions. It counts as in vivo. The conditions noted are these: 1 mg; for Duration: Single. How it is done:
The peptide having the sequence 4 was tested to determine its effect on a range of different diseases in humans, horses and cows.
The peptides were prepared as compositions containing 1 mg of peptide dissolved in 5 ml of a solution comprising water, bicarbonate and either benzyl alcohol or methanol.

Regarding `CC(=O)N[C@H](CC(C)C)C(=O)N1CCC[C@@H]1C(=O)N[C@H](CC(C)C)C(=O)N[C@H](C)C(=O)N[C@H](Cc1ccc(O)cc1)C(=O)N1CCC[C@@H]1C(=O)N[C@H](CCC(N)=O)C(=O)N[C@H](Cc1c[nH]c2ccccc12)C(=O)N[C@H](Cc1ccc(O)cc1)C(=O)NCC(=O)N1CCC[C@@H]1C(=O)N[C@@H](C(=O)N[C@H](Cc1c[nH]c2ccccc12)C(=O)N[C@H](CCC(=O)O)C(=O)N[C@H](Cc1ccccc1)C(=O)O)[C@H](C)O` [SEQ ID NO. 4, Ac-LPLAYPQWYGPTWEF] (Ac-[dL][dP][dL][dA][dY][dP][dQ][dW][dY]G[dP][dT][dW][dE][dF]-OH; C-terminus assumed), the Effect result is, setting by setting: (Cancer Pain from Adrenal Cancer, IM, Repeated) “Moderate”; (Cancer Pain from Bone Metasta, IM, Repeated) “Pronounced”; (Cancer Pain from Lung Cancer, SC, Repeated) “Pronounced”; (Dermatitis, SC) “Pronounced”; (Emphysema, SC) “Moderate”; (Lymphodema, IM) “Pronounced”. In addition, the Effect entry (Osteoarthritis, Joint) is “Mild” and the Effect entry (Tonsilitis, oral) is “Pronounced”. For the same molecule, the Duration result by setting is: (Dermatitis, SC) “Single 96 hrs”; (Emphysema, SC) “Single 48 hrs”; (Lymphodema, IM) “Single 96 hrs”; (Osteoarthritis, Joint) “Single 48 hrs”; (T1 Diabetes, IM) “Single 96 hrs”; (Tonsilitis, oral) “Single 48 hrs”.
